Results from patent US9676778B2, “Substituted pyrrolo[2,3-b]pyrazines as JAK3 inhibitors” (PRINCIPIA BIOPHARMA INC., priority 2012, dated 2017).

Assays:
[1] = tested on: collagen-induced arthritis; conditions: Milici 2008; cited from earlier work
[2] = tested on: delayed-type hypersensitivity response; conditions: Kudlacz 2004; cited from earlier work
psoriasis = conditions: short-term study, Boy 2009; cited from earlier work
[3] = tested on: mixed lymphocyte reaction; conditions: Kudlacz 2004; cited from earlier work
JAK3 = biological target: T1, JAK3 (Homo sapiens, UniProt P52333); assay: Determination of Drug-Kinase Residence Time for JAK3 (TR-FRET tracer competition); format: binding; conditions: 1.5 uM compound, 500 nM JAK3, from 1 hour through 6 hours
T1 construct: purchased Invitrogen PV3855
Experimental: The read-out for slow dissociation is the ability of the compound of interest to block binding of a high affinity fluorescent tracer molecule to the kinase active site, as detected using time-resolved fluorescence resonance energy transfer (TR-FRET). The experiment was conducted in a buffer consisting of 50 mM Hepes pH 7.5, 10 mM MgCl2, 0.01% Triton X-100, and 1 mM EGTA.
The first step of the procedure was incubation of 500 nM JAK3 (Invitrogen Cat. #PV3855) with 1.5 uM of a compound disclosed in Table 1 for 30 minutes in a volume of 10 uL. The mixture was then diluted 5-fold by mixture of 10 uL JAK3/cmpd with 40 uL buffer. A 10 uL volume of the diluted kinase/compound solution was then added to a well of a small volume 384 well plate (such as Greiner Cat. #784076). In order to probe for reversibility of the kinase-compound binding interaction, a competition solution containing both a high affinity fluorescent tracer and an antibody coupled to Europium was prepared. For JAK3, the competition solution contained 8 uM Tracer 236 (Invitrogen Cat. #PV5592), which is a proprietary high affinity ligand for JAK3 coupled to the fluorophore AlexaFluor 647. The competition solution also contained 80 nM of an Anti-GST antibody coupled to Europium which is designed to bind the GST purification tag in JAK3.
After addition of 10 uL of the competition solution to the Greiner plate, the mixture was incubated for one hour or greater to allow time for dissociation of non-covalent inhibitors and binding of the high affinity tracer. It was expected that covalent and slow dissociating inhibitors will block binding of the tracer while rapidly dissociating non-covalent inhibitors will not. Binding of the tracer to JAK3 was detected using TR-FRET between the Europium moiety of the Anti-GST antibody and the AlexaFluor 647 group of Tracer 236. Binding was evaluated using a Perkin Elmer Envision instrument (Model 2101) equipped with filters and mirrors compatible with LANCE-type TR-FRET experiments. Data were plotted at percentage of signal obtained in the absence of competitor compound. […]

JAK3 protein = biological target: T2, JAK3 protein (Homo sapiens, UniProt P52333); assay: Reversibility of Binding (trypsin digestion, HPLC-MS/MS)
T2 sequence (P52333 1-1124): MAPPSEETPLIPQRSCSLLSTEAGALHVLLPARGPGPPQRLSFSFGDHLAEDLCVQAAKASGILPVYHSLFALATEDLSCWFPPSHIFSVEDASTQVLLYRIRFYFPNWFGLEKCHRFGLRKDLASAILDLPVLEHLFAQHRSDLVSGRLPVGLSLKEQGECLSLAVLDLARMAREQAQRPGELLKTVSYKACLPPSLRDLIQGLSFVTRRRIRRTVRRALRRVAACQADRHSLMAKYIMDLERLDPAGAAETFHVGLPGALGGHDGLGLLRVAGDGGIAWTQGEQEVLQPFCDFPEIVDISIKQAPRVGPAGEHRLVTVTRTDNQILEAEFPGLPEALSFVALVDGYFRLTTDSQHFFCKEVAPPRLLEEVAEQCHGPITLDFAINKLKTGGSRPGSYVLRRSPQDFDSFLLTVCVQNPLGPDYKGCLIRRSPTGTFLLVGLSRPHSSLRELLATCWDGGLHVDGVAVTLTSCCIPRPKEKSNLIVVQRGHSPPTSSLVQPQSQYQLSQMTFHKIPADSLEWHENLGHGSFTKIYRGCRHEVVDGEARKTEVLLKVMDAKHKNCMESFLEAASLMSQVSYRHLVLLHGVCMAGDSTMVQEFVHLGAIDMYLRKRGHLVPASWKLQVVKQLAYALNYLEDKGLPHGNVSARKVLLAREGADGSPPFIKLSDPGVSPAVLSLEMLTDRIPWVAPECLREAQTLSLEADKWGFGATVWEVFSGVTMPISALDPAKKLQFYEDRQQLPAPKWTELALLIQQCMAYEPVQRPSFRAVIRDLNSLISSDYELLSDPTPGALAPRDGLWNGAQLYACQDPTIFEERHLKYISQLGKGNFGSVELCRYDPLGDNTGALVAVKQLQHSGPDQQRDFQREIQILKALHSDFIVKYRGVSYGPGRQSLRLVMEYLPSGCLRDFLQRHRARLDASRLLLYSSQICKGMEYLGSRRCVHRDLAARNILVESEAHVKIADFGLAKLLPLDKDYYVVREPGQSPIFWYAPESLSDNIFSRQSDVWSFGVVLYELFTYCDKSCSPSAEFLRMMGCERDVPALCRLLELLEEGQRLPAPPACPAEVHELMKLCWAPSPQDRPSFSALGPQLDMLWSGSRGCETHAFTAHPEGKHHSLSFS
Experimental: The following approach was developed to differentiate compounds that form irreversible bonds with their targets, such as acrylamide compounds, from compound that bind reversibly. Reactions were prepared with the JAK3 protein target at a higher concentration than the compound of interest. The reactions were then digested with trypsin, disrupting proper folding of the target. […] The concentration of compound in solution was assessed both preceding and following perturbation using high performance liquid chromatography (HPLC) coupled to tandem mass spectrometry.

MJ = assay: Tumor Cell Proliferation Assay; format: cell-based; conditions: CTCL (Unknown), 72 hr
Experimental: (§1) Cells (SZ-4 CTCL cells) were plated at a density of 5000 cells/well (384 well plates). Cells were plated in DMEM culture media supplemented with 0.5% fetal bovine serum. Other tumor cells (e.g. NK-TCL, T-ALL) were plated at densities of 2000-10,000 cells/well in culture media (e.g. DMEM, RPMI), containing 1%-20% FBS, dependent on the growth requirements of the individual tumor cell line. Compounds were diluted in culture media using serial dilution yielding final concentrations with 0 (DMSO control) or concentrations ranging from 0.5 nM to 10 uM. For the CTCL cells, after 1 hr incubation, at 37° C. in 95% air, 5% CO2, cells were induced with 100 ng/ml IL-2 for 72 hr. For the other cell types, cells were incubated without further induction for 72 hr. Cell Titer-Glo reagent was then added to the cells, contents mixed for 2 min, incubated at room temperature for 10 min, then luminescence was determined using a microplate luminometer. The percent inhibition was calculated based on a DMSO control for no inhibition and plotted as a function of test compound concentration from which an IC50 value was calculated.

NKS1 = assay: Tumor Cell Proliferation Assay; format: cell-based; conditions: NKS1, NK-TCL; 72 hr
Experimental: as §1

Hut-102 = assay: Tumor Cell Proliferation Assay; format: cell-based; conditions: Hut-102, CTCL (Mycosis fungoides); 72 hr
Experimental: as §1

KHG1 = assay: Tumor Cell Proliferation Assay; format: cell-based; conditions: KHG1, NK-TCL; 72 hr
Experimental: as §1

SNK6 = assay: Tumor Cell Proliferation Assay; format: cell-based; conditions: SNK6, NK-TCL; 72 hr
Experimental: as §1

SNK1 = assay: Tumor Cell Proliferation Assay; format: cell-based; conditions: SNK1, NK-TCL; 72 hr
Experimental: as §1

SZ-4 CTCL cells = assay: Tumor Cell Proliferation Assay; format: cell-based; conditions: SZ-4, CTCL (Sézary syndrome); 100 ng/ml IL-2, 72 hr, Cell Titer-Glo
Experimental: as §1

HANK1 = assay: Tumor Cell Proliferation Assay; format: cell-based; conditions: HANK1, NK-TCL; 72 hr
Experimental: as §1

H9 = assay: Tumor Cell Proliferation Assay; format: cell-based; conditions: Homo sapiens; H9, CTCL (Sézary syndrome); 72 hr
Experimental: as §1

HH = assay: Tumor Cell Proliferation Assay; format: cell-based; conditions: Homo sapiens, CTCL (non MF, non Sézary syndrome), 72 hr
Experimental: as §1

H78 = assay: Tumor Cell Proliferation Assay; format: cell-based; conditions: H78, CTCL (Sézary syndrome); 72 hr
Experimental: as §1

## C[C@@H]1CCN(C(=O)CC#N)C[C@@H]1N(C)c1ncnc2[nH]ccc12 [CP-690,550]
[1]
  effect in collagen-induced arthritis model: blocks
[2]
  effect on delayed-type hypersensitivity response (DTH): blocks
psoriasis
  efficacy in psoriasis patients: demonstrated efficacy
[3]
  effect on mixed lymphocyte reaction (MLR): blocks

## C=CC(=O)Nc1cccc(-c2cnc3[nH]cc(C(=O)C(C)(C)C)c3n2)c1 [Compound 1, N-(3-(7-pivaloyl-5H-pyrrolo[2,3-b]pyrazin-2-yl)phenyl)acrylamide]
JAK3
  binding of Tracer 236 after pre-incubation with compound: no increase
JAK3 protein; JAK3 at higher concentration than compound
  Compound in solution in the native state?: no
JAK3 protein; after digestion with trypsin
  Compound in solution in the denatured or digested state?: no

## C=CC(=O)Nc1cccc(-c2cnc3[nH]cc(C(=O)NC(C)(C)C)c3n2)c1 [Compound 2, 2-(3-acrylamidophenyl)-N-(tert-butyl)-5H-pyrrolo[2,3-b]pyrazine-7-carboxamide]
JAK3
  binding of Tracer 236 after pre-incubation with compound: no increase
MJ
  IC50: > 5000 nM
NKS1
  IC50: 109 nM
Hut-102
  IC50: 104 nM
KHG1
  IC50: 498 nM
SNK6
  IC50: 8420 nM
SNK1
  IC50: 735 nM
SZ-4 CTCL cells
  IC50: 56 nM
HANK1
  IC50: 1870 nM
H9
  IC50: 450 nM
HH
  IC50: 2700 nM
H78
  IC50: 150 nM

## CN(C)CC=CC(=O)Nc1cccc(-c2cnc3[nH]cc(C(=O)NC(C)(C)C)c3n2)c1 [Compound 3, N-(tert-butyl)-2-(3-(4-(dimethylamino)but-2-enamido)phenyl)-5H-pyrrolo[2,3-b]pyrazine-7-carboxamide]
JAK3
  binding of Tracer 236 after pre-incubation with compound: no increase
